The text below walks through data of PubChem BioAssay AID330 (DTP/NCI, 2004).

This assay deals with P388 leukemia ip, CD2F1 mice, survival T/C. The experiment in a line: NCI In Vivo Anticancer Drug Screen. Data for tumor model P388 Leukemia (intraperitoneal) in CD2F1 (CDF1) mice. The conditions noted are these: endpoint: median survival time, higher = longer survival. The essentials: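 Mice carrying the transplanted tumor received test compound or vehicle. Survival was recorded in each group, and the value is the treated-group measurement divided by that of the vehicle-treated control group.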

[1] abbreviates: dose: 50.0 mg/kg/injection, schedule: Q01DX005 (ip), vehicle: saline.
Where [2] appears, read: dose: 100.0 mg/kg/injection, schedule: Q01DX005 (ip), vehicle: saline.
[3] abbreviates: dose: 200.0 mg/kg/injection, schedule: Q01DX005 (ip), vehicle: saline.
[4] abbreviates: dose: 50.0 mg/kg/injection, schedule: Q01DX005 (ip), vehicle: saline with Tween-80.
Where [5] appears, read: dose: 100.0 mg/kg/injection, schedule: Q01DX005 (ip), vehicle: saline with Tween-80.
Setting [6] is: dose: 200.0 mg/kg/injection, schedule: Q01DX005 (ip), vehicle: saline with Tween-80.
Setting [7] is: dose: 12.5 mg/kg/injection, schedule: Q01DX005 (ip), vehicle: Klucel (hydroxypropylcellulose) (HPC).
[8] abbreviates: dose: 50.0 mg/kg/injection, schedule: Q01DX005 (ip), vehicle: Klucel (hydroxypropylcellulose) (HPC).
[9] abbreviates: dose: 100.0 mg/kg/injection, schedule: Q01DX005 (ip), vehicle: Klucel (hydroxypropylcellulose) (HPC).
[10] abbreviates: dose: 200.0 mg/kg/injection, schedule: Q01DX009 (ip), vehicle: Klucel (hydroxypropylcellulose) (HPC).
The mark [11] stands for this setting: dose: 100.0 mg/kg/injection, schedule: Q01DX001 (ip), vehicle: saline with Tween-80.

Where “and” joins values, the source holds several entries; their conditions need not be identical. Equal values may be shown once. Inconclusive results and toxic doses are left out.

On to `COC(=O)[C@@]12OC[C@]34[C@H]([C@@H](O)[C@@H]1O)[C@@]1(C)C=C(OC5OC(CO)C(O)C(O)C5O)C(=O)[C@@H](C)[C@@H]1C[C@H]3OC(=O)[C@H](OC(=O)/C=C(\C)C(C)C)[C@@H]24` (some centres not stated), for which the T/C runs as follows: (dose: 2.0 mg/kg/injection, schedule: Q01DX005 (ip), vehicle: saline + alcohol) 100 % of control; (dose: 4.0 mg/kg/injection, schedule: Q01DX005 (ip), vehicle: saline + alcohol) 94 % of control; (dose: 8.0 mg/kg/injection, schedule: Q01DX005 (ip), vehicle: saline + alcohol) 94 % of control; (dose: 16.0 mg/kg/injection, schedule: Q01DX005 (ip), vehicle: saline + alcohol) 106 % of control; (dose: 32.0 mg/kg/injection, schedule: Q01DX005 (ip), vehicle: saline + alcohol) 111 % of control; (dose: 64.0 mg/kg/injection, schedule: Q01DX005 (ip), vehicle: saline + alcohol) 108 % of control.

On to `CC12Cc3ccccc3CC1OCN1CN2COC2Cc3ccccc3CC21C` (configuration not stated), for which the T/C is, setting by setting: under setting [1], 105 % of control; under setting [2], 98 % of control; under setting [3], 90 % of control.

`Nc1nc2[nH]c(=O)[nH]c(=O)c2[nH]1`: the T/C runs as follows: under setting [4], 100 % of control; under setting [5], 102 % of control; under setting [6], 109 % of control.

Consider `COC(=O)C(CS[C@@H]1CCCC[C@H]1O)NC(C)=O` (some centres not stated), for which the T/C was 92 % of control (dose: 40.0 mg/kg/injection, schedule: Q01DX005 (ip), vehicle: saline); 96 % of control (dose: 60.0 mg/kg/injection, schedule: Q01DX005 (ip), vehicle: saline); 96 % of control (dose: 120.0 mg/kg/injection, schedule: Q01DX005 (ip), vehicle: saline).

As for `NCC1CC2c3ccccc3C1c1ccccc12` (configuration not stated), the T/C is 103 % of control under setting [7]; 97 % of control (dose: 25.0 mg/kg/injection, schedule: Q01DX005 (ip), vehicle: Klucel (hydroxypropylcellulose) (HPC)); 99 % of control and 95 % of control under setting [8]; 106 % of control under setting [9].

`COc1cc(/C=C/c2cc(OC)c(OC)c(OC)c2)oc(=O)c1`: the T/C was 98 % of control (dose: 50.0 mg/kg/injection, schedule: Q01DX009 (ip), vehicle: Klucel (hydroxypropylcellulose) (HPC)); 104 % of control (dose: 100.0 mg/kg/injection, schedule: Q01DX009 (ip), vehicle: Klucel (hydroxypropylcellulose) (HPC)); 99 % of control under setting [10].

`CCOP(=S)(N/N=C/c1c(CO)cnc(C)c1O)OCC`: the T/C was 98 % of control under setting [8]; 102 % of control under setting [9]; 101 % of control (dose: 200.0 mg/kg/injection, schedule: Q01DX005 (ip), vehicle: Klucel (hydroxypropylcellulose) (HPC)).

Turning to `[Cl][Ge]([c]1ccccc1)[c]1ccccc1.[Cl][Ge]([c]1ccccc1)[c]1ccccc1`, the T/C is 111 % of control (dose: 3.12 mg/kg/injection, schedule: Q01DX005 (ip), vehicle: Klucel (hydroxypropylcellulose) (HPC)); 116 % of control (dose: 6.25 mg/kg/injection, schedule: Q01DX005 (ip), vehicle: Klucel (hydroxypropylcellulose) (HPC)); 106 % of control under setting [7].

Regarding `[N-]=[N+]=Nc1ccc(SSCCC(=O)ON2C(=O)CCC2=O)cc1`, the T/C under setting [4] was 118 % of control and the T/C under setting [5] is 116 % of control.

Consider `C=C(Cl)C(O)CNCCCC` (configuration not stated), for which the T/C is, setting by setting: under setting [4], 110 % of control; under setting [5], 110 % of control.

Turning to `COc1cccc2c1C(=O)c1c(O)c3c(c(O)c1C2=O)CC(O)(C(=O)CO)CC3OC1CC(N/C(C)=C/C(C)=O)C(O)C(C)O1` (configuration not stated), the T/C (dose: 10.0 mg/kg/injection, schedule: Q04DX003 (ip), vehicle: saline with Tween-80) is 160 % of control.

`Cc1ccc(N(CC(=O)O)S(=O)(=O)c2ccccc2)c(C)c1Cc1cccc(Br)c1`: the T/C under setting [4] was 101 % of control, the T/C under setting [5] is 104 % of control and the T/C under setting [6] was 101 % of control.

With `COc1ccc(C(=O)c2coc3cc4c(cc23)OCO4)c(O)c1`, the T/C runs as follows: (dose: 50.0 mg/kg/injection, schedule: Q01DX001 (ip), vehicle: Klucel (hydroxypropylcellulose) (HPC)) 88 % of control; (dose: 100.0 mg/kg/injection, schedule: Q01DX001 (ip), vehicle: Klucel (hydroxypropylcellulose) (HPC)) 88 % of control; (dose: 200.0 mg/kg/injection, schedule: Q01DX001 (ip), vehicle: Klucel (hydroxypropylcellulose) (HPC)) 88 % of control.

As to `CN1C2CCC1C(CO)C(O)C2` (configuration not stated), the T/C under setting [1] is 98 % of control, the T/C under setting [2] was 103 % of control and the T/C under setting [3] is 107 % of control.

In the case of `[NH-]CC[NH-].[NH-]CC[NH-].[NH-]CC[NH-].[Ni]`, the T/C reads like this: (dose: 6.25 mg/kg/injection, schedule: Q01DX009 (ip), vehicle: saline) 90 % of control; (dose: 12.5 mg/kg/injection, schedule: Q01DX009 (ip), vehicle: saline) 90 % of control.

With `CC(=O)Nc1ccccc1C(C)=O`, the T/C was 91 % of control (dose: 50.0 mg/kg/injection, schedule: Q01DX009 (ip), vehicle: saline with Tween-80); 95 % of control (dose: 50.0 mg/kg/injection, schedule: Q04DX003 (ip), vehicle: saline with Tween-80); 95 % of control (dose: 100.0 mg/kg/injection, schedule: Q01DX009 (ip), vehicle: saline with Tween-80); 100 % of control (dose: 100.0 mg/kg/injection, schedule: Q04DX003 (ip), vehicle: saline with Tween-80); 100 % of control (dose: 200.0 mg/kg/injection, schedule: Q01DX009 (ip), vehicle: saline with Tween-80); 100 % of control (dose: 200.0 mg/kg/injection, schedule: Q04DX003 (ip), vehicle: saline with Tween-80).

Take `O=C1[C@@H]2C3C=CC([C@H]4C(=O)N(CO)C(=O)[C@@H]34)[C@@H]2C(=O)N1CO`: the T/C by setting is: (dose: 25.0 mg/kg/injection, schedule: Q01DX009 (ip), vehicle: Klucel (hydroxypropylcellulose) (HPC)) 114 % of control; under setting [10], 152 % of control and 160 % of control.

Take `COc1ccc(C2c3cc4c(cc3OC(N3CCCC3)C2C)OCO4)c(OC)c1` (configuration not stated): the T/C is, setting by setting: (dose: 60.0 mg/kg/injection, schedule: Q01DX005 (ip), vehicle: saline with Tween-80) 99 % of control; (dose: 120.0 mg/kg/injection, schedule: Q01DX005 (ip), vehicle: saline with Tween-80) 99 % of control; (dose: 240.0 mg/kg/injection, schedule: Q01DX005 (ip), vehicle: saline with Tween-80) 97 % of control.

With `CC(C)C1=CC23CCC4C(C)(C(N)=O)CCCC4(C)C2CC1C1C(=O)OC(=O)C13` (configuration not stated), under setting [11], the T/C was 91 % of control.

Turning to `COc1cc2c(c(OC)c1OC)-c1cc3c(cc1C(OC(C)=O)C1COC(=O)C1C2)OCO3` (configuration not stated), the T/C by setting is: (dose: 0.5 mg/kg/injection, schedule: Q04DX002 (ip), vehicle: acetone) 97 % of control and 104 % of control; (dose: 1.0 mg/kg/injection, schedule: Q04DX002 (ip), vehicle: acetone) 102 % of control and 94 % of control; (dose: 2.0 mg/kg/injection, schedule: Q04DX002 (ip), vehicle: acetone) 97 % of control and 104 % of control.

`COC(=O)C1=NNc2ccccc2C(OC(C)=O)C1C` (configuration not stated): the T/C runs as follows: under setting [11], 90 % of control; (dose: 200.0 mg/kg/injection, schedule: Q01DX001 (ip), vehicle: saline with Tween-80) 96 % of control; (dose: 400.0 mg/kg/injection, schedule: Q01DX001 (ip), vehicle: saline with Tween-80) 97 % of control.
